Assay results published in patent US7138113B2, “Glycoprotein matrix compositions and methods related thereto” (Pharmachem Laboratories, Inc., priority 2001, dated 2006).

What was measured:
[1] = Stability of CoQ10 in a 50° C. oven open to the air (HPLC); assay type: physicochemical; settings: for Loss of CoQ10 after 36 days at 50° C. (equivalent to 3 months at room temperature) / Loss of CoQ10 after 72 days at 50° C. (equivalent to 6 months at room temperature): open to the air
Procedure: 100 mg of USP CoQ10 (Sigma) and a composition from Example 1 was placed in a 10 ml beaker in a 50° C. oven open to the air. The amount of CoQ10 remaining was analyzed by HPLC using a C18 column (Perkin Elmer Pecosil 5, 15 cm) and a solvent of 75% methanol and 25% isopropanol.

[2] = system: lower density lipoproteins (LDL+VLDL); assay: Inhibition of cupric ion oxidation of lower density lipoproteins (quality of antioxidant activity); settings: 6 hours

Loss of CoQ10 at 0 days ([1]; 0 days)	Loss of CoQ10 after 36 days at 50° C. (equivalent to 3 months at room temperature) ([1]; listed as USP CoQ10)	Loss of CoQ10 after 36 days at 50° C. (equivalent to 3 months at room temperature) ([1]; listed as commercial CoQ10)	Loss of CoQ10 after 72 days at 50° C. (equivalent to 6 months at room temperature) ([1]; listed as USP CoQ10)	Loss of CoQ10 after 72 days at 50° C. (equivalent to 6 months at room temperature) ([1]; listed as commercial sample)	IC50 ([2]; LDL+VLDL oxidation, 25 μM cupric ion, 37° C., based on CoQ10 conc.)	IC50 ([2]; concentration of selenium to inhibit LDL+VLDL oxidation 50%, cupric ion)	Structure (SMILES)
0%	6.8%	6.8%	16.8%	16.8%	1.33 µM		COC1=C(OC)C(=O)C(C/C=C(\C)CC/C=C(\C)CC/C=C(\C)CC/C=C(\C)CC/C=C(\C)CC/C=C(\C)CC/C=C(\C)CC/C=C(\C)CC/C=C(\C)CCC=C(C)C)=C(C)C1=O [CoQ10 (USP), CoEnzyme Q10]
						27 µM	C[Se]CC[C@H](N)C(=O)O [Selenomethionine]
